Measured values taken from article PMC5828182, “Inhibition of nuclear factor of activated T cells (NFAT) c3 activation attenuates acute lung injury and pulmonary edema in murine models of sepsis” (Oncotarget, 2018).

How the values were obtained:
[1] = tested on: experimental colitis model in mice; conditions: cited from earlier work
[2] = tested on: islet allografts between BL/6 and C3H/HeN mouse strains; conditions: BL/6 and C3H/HeN mice; cited from earlier work
[3] = tested on: mouse models of Alzheimer's disease; conditions: mice; cited from earlier work
diabetic db/db mice = conditions: cited from earlier work
NFAT = conditions: cited from earlier work
Excerpt: (§1) Research efforts to identify NFAT inhibitors span over the last two decades but so far none of them performed well in the clinical trials.

calcineurin = conditions: derivative of cyclosporine; cited from earlier work
Excerpt: as §1

plaque psoriasis = conditions: cited from earlier work
Excerpt: as §1

[4] = tested on: NFAT dependent gene expression; conditions: liver allograft patients, after 8–12 months; cited from earlier work
[5] = tested on: NFATc3−/− and wild type mice, severe CLP sepsis; test: survival after severe (lethal) CLP; format: in vivo, mouse
Method: Figure 5 NFATc3^−/− mice show improved arterial Oxygen saturation and survival compared to wild type mice (A) NFATc3^−/− and wild type mice (N = 5) were injected with 15 mg/kg LPS i.p and the arterial oxygen saturation was measured using STARR Life Sciences Corp. Pulse Oximeter. (B–C) NFATc3^−/− and wild type mice (N = 5 sham control group; N = 10 CLP group) were subjected to severe CLP, maintained on regular or imipenem monohydrate supplemented water and the survival was monitored over a period of 96 h. A^* p ≤ 0.001 WT-LPS vs. WT-Control; ^** p ≤ 0.01 NFATc3^−/− LPS vs. WT-LPS.
Cecal ligation puncture (CLP) sepsis models were established according to Cuenca et al.. In an anesthetized mouse, the cecum is exposed and ligated below ileo-cecal valve and two perforations were made across the cecum using 21G needle. The cecum is then compressed to express minute amount of fecal material. To establish moderate CLP sepsis the cecum was ligated at less than 1.0 cm from the distal end and for severe sepsis about 2.0 cm of the cecum from distal end was ligated. Pulmonary edema, arterial oxygenation, and inflammation were evaluated in moderate CLP sepsis models. […] LPS (15 mg/kg) or the same volume of normal saline was administered into intraperitoneal cavity of WT or NFATc3^−/− mice and arterial oxygenation was measured by pulse oximetry. […]

Compound: 11R-VIVIT
- effect in experimental colitis [1]: protective effect
- immunosuppression in islet allografts [2]: improved immunosuppression
- microgliosis and Amyloid β peptide (Aβ) plaque load [3]: attenuated
- albuminuria (diabetic db/db mice): markedly attenuates
- mesangial matrix expansion and podocyte injury (diabetic db/db mice): alleviated

Compound: COc1cc(C[C@H]2C(=O)OC[C@@H]2Cc2ccc(OC)c(OC)c2)ccc1O [Arctigenin]
- NFAT inhibition (NFAT): variable degree of NFAT inhibition

Compound: C=C/C=C/C[C@@H](C)[C@@H](O)[C@H]1C(=O)N[C@@H](CC)C(=O)N(C)CC(=O)N(C)[C@@H](CC(C)C)C(=O)N[C@@H](C(C)C)C(=O)N(C)[C@@H](CC(C)C)C(=O)N[C@@H](C)C(=O)N[C@H](C)C(=O)N(C)[C@@H](CC(C)C)C(=O)N(C)[C@@H](CC(C)C)C(=O)N(C)[C@@H](C(C)C)C(=O)N1C [ISA247]
- calcineurin inhibition (calcineurin): more potent and effectively inhibited Calcineurin
- phase III outcome (plaque psoriasis): did not result in to any commercial products so far

Compound: C=CC[C@@H]1/C=C(\C)C[C@H](C)C[C@H](OC)[C@H]2O[C@@](O)(C(=O)C(=O)N3CCCC[C@H]3C(=O)O[C@H](/C(C)=C/[C@@H]3CC[C@@H](O)[C@H](OC)C3)[C@H](C)[C@@H](O)CC1=O)[C@H](C)C[C@@H]2OC [Tacrolimus]
- NFAT dependent gene expression [4]: increased NFAT dependent gene expression

Compound: Cc1cc2c(C(C)C)c(O)c(O)c(C=O)c2c(O)c1-c1c(C)cc2c(C(C)C)c(O)c(O)c(C=O)c2c1O [gossypol]
- NFAT inhibition (NFAT): variable degree of NFAT inhibition

Compound: C[C@@H](O)[C@H]1C(=O)N2C(C(=O)O)=C(SCCN=CN)C[C@H]12 [imipenem, imipenem monohydrate]
- survival ([5]; NFATc3−/− mice, imipenem in drinking water, monitored over 96 h, N = 10 CLP group): 60%
- lethality / survival of WT mice ([5]; WT mice, imipenem (broad-spectrum antibiotic) in drinking water, 96 h): not improved any further

Compound: O=c1c(O)c(-c2ccc(O)cc2)oc2cc(O)cc(O)c12 [kaempferol]
- NFAT inhibition (NFAT): variable degree of NFAT inhibition
